Values quoted from earlier work as cited in PMC7394005, “Assessing the Selectivity of FXR, LXRs, CAR, and RORγ Pharmaceutical Ligands With Reporter Cell Lines” (Frontiers in Pharmacology, 2020).

Tests used:
CAR/SRC-1 = system: CAR/SRC-1; parameters: method as in Maglich et al., 2003; settings: ref Maglich et al., 2003; read-out: EC50 in the CAR/SRC-1 FRET assay; cited from earlier work
FXR = system: FXR; parameters: method as in Yu et al., 2014; settings: ref Yu et al., 2014; read-out: IC50 in FXR cell-based antagonistic assays; cited from earlier work
LXRβ = settings: luciferase reporter gene with LXR response elements in HEK293 cells; ref Peng et al., 2011; cited from earlier work
[1] = system: type 1 diabetes model mice; parameters: method as in Solt et al., 2015; settings: ref Solt et al., 2015; cited from earlier work
RORγt = system: RORγt; parameters: method as in Rene et al., 2014; Chang et al., 2016; settings: full-length RORγt transfected cells; ref Rene et al., 2014; Chang et al., 2016; read-out: EC50, induction of reporter gene expression; cited from earlier work
hPXR LBD = system: hPXR LBD; parameters: method as in Shukla et al., 2011; settings: ref Shukla et al., 2011; cited from earlier work
hPXR = system: hPXR; parameters: method as in Lin et al., 2017; settings: ref Lin et al., 2017; read-out: IC50 in the cell-based hPXR antagonistic assay; cited from earlier work

For Clc1ccc(-c2nc3sccn3c2/C=N/OCc2ccc(Cl)c(Cl)c2)cc1 [CITCO], the EC50 (CAR/SRC-1) is given as 49 nM.

For COc1cccc(Cn2cc(C(=O)Nc3ccc(C)c(S(=O)(=O)N4CCOCC4)c3)c(-c3ccc(C)cc3)n2)c1 [DY268], the IC50 (FXR) is listed as 468 nM.

In the case of O=C(O)Cc1cccc(OCCCN(Cc2cccc(C(F)(F)F)c2Cl)CC(c2ccccc2)c2ccccc2)c1 [GW3965], the LXRβ agonistic potency (LXRβ) is listed as “nanomolar”.

In the case of CC(=O)Nc1nc(C)c(S(=O)(=O)Nc2ccc(C(O)(C(F)(F)F)C(F)(F)F)cc2)s1 [SR1001], the “Diabetes incidence and insulitis” value [1] is given as “significantly reduced diabetes incidence and insulitis”.

For O=C(Nc1ccc(C(O)(C(F)(F)F)C(F)(F)F)cc1)c1ccc(C(F)(F)F)cc1 [SR1078], the EC50 (RORγt) is listed as 800 nM.

For CCOP(=O)(OCC)C(=Cc1cc(C(C)(C)C)c(O)c(C(C)(C)C)c1)P(=O)(OCC)OCC [SR12813], the EC50 (hPXR LBD) is given as 440 nM.

In the case of SPA70, the IC50 (hPXR) is listed as 510 nM.
